Experimental data: patent EP2233463A1, “NEW COMPOUNDS ISOLATED FROM EXTRACT OF ANTRODIA CAMPHORATA” (Golden Biotechnology Corporation, priority 2007, dated 2009)
In brackets after ≈: the same amount, converted by molar mass.

Experiments:
Assay type in all cases: cell-based
[1] = system: human breast-cancer cells, MCF-7; assay: Ex vivo survival assay (MTT) for anti-breast cancer effects, MCF-7; settings: for IC50 value lower than that of crude extracts from A. camphorata: MCF-7, relative to crude extracts (11.13 µg/ml); for IC50(µg/ml) MCF-7: MCF-7 cells, 48 hours incubation, MTT, 570 nm
Procedure: (§1) The NCI anti-cancer drug screen model was adopted to test the anti-cancer effect of the isolated compounds from example 1 in the present invention. The isolated Antroquinonol B and Antroquinonol C from example 1 were added into the culture media of human breast-cancer cells, MCF-7 or MDA-MB-231, to test for tumor cell survival. This survival assay was carried out with the widely known MTT (3-[4,5-dimethylthiazol-2-yl]2,5-diphenyltetrazolium bromide) assay. MCF-7 cell line is originated from primary breast cancer cells (early stage), sensitive to estrogen and therefore is estrogen-dependent, while MDA-MB-231 is insensitive to estrogen and therefore is estrogen-independent, which is a difficult tumor with a low survival rate. MTT assay is commonly used to determine cell proliferation, percent of viable cells, and cytotoxicity. 3-[4,5-dimethylthiazol-2-yl]2,5-diphenyltetrazolium bromide (MTT) is a yellow dye, which can be absorbed by the living cells and be reduced to purplish blue formazan crystals by succinate tetrazolium reductase in mitochondria. Formazan formation can therefore be used to assess and determine the survival rate of cells. The human breast-cancer cells, MCF-7 (purchased from the Bioresources Collection and Research Center (BCRC) with the accession number of BCRC60436) and MDA-MB-231 (purchased from National Health Research Institutes (NHRI) with the accession number of CCRC 60425) were cultivated in media containing fetal calf serum for 24 hours. The proliferated cells were washed once with PBS, then treated with 1x trypsin-EDTA and centrifuged at 1200 rpm for 5 minutes. The supernatant was discarded and the cell pellet was resuspended in 10 ml of fresh culture medium by gently shaking. The cells were placed in a 96-well plate. Total ethanol extracts of Antrodia camphorata without purification (the control group), Antroquinonol B or Antroquinonol C (the experimental group) were added into each of the 96 wells at the following concentrations: 30, 10, 3, 1, 0.3, 0.1 and 0.03 µg/ml, respectively. The cells were incubated at 37°C in a 5% CO2 incubator for 48 hours. MTT was added in a concentration of 2.5 mg/ml into each well in dark and incubated for 4 hours, followed by the addition of 100 µl of lysis buffer to stop the reaction. The plates were read on an ELISA reader at wavelength of 570 nm to determine the survival rates. Table 1 Results of ex vivo survival assay for inhibition of breast cancer cells

[2] = system: human breast-cancer cells, MDA-MB-231; assay: Ex vivo survival assay (MTT) for anti-breast cancer effects, MDA-MB-231; settings: for IC50 value lower than that of crude extracts from A. camphorata: MDA-MB-231, relative to crude extracts (25.81 µg/ml); for IC50(µg/ml) MDA-MB-231: MDA-MB-231 cells, 48 hours incubation, MTT, 570 nm
Procedure: as §1

[3] = system: human lung cancer cell A549; assay: Ex vivo survival assay (MTT) for anti-lung cancer effects, A549; settings: for IC50 value lower than that of crude extracts from A. camphorata: A549, relative to crude extracts (13.21 µg/ml); for IC50 ( µg/ml ) A549: A549 cells, 48 hours incubation, MTT, 570 nm
Description: MTT assay is commonly used to determine cell proliferation, percent of viable cells, and cytotoxicity. 3-[4,5-dimethylthiazol-2-yl]2,5-diphenyltetrazolium bromide (MTT) is a yellow dye, which can be absorbed by the living cells and be reduced to purplish blue formazan crystals by succinate tetrazolium reductase in mitochondria. Formazan formation can therefore be used to assess and determine the survival rate of cells. The NCI anti-cancer drug screen model was also employed to test the anti-lung cancer effect of the Antroquinonol B and Antroquinonol C in the present invention. The Antroquinonols isolated from example 1 were added into the culture media of human lung cancer cell A549 with the abovementioned MTT assay to analyze lung cancer cell survival rates. Human lung cancer cell A549 was obtained from the Bioresources Collection and Research Center (BCRC) of the Food Industry Research and Development Institute with an accession number of BCRC 60074. A549 cells were cultivated in media containing fetal calf serum for 24 hours. The proliferated cells were washed once with PBS, then treated with 1x trypsin-EDTA and centrifuged at 1200 rpm for 5 minutes. The supernatant was discarded and the cell pellet was resuspended in 10 ml of fresh culture medium by gently shaking. The cells were placed in a 96-well plate. Total ethanol extracts of Antrodia camphorata without purification (the control group), Antroquinonol B or Antroquinonol C (the experimental group) were added into each of the 96 wells at the following concentrations: 30, 10, 3, 1, 0.3, 0.1 and 0.03 µg/ml, respectively. The cells were incubated at 37°C in a 5% CO2 incubator for 48 hours. MTT was added in a concentration of 2.5 mg/ml into each well in dark and incubated for 4 hours, followed by the addition of 100 µl of lysis buffer to stop the reaction. The plates were read on an ELISA reader at wavelength of 570 nm to determine the survival rates. Table 2 Results of ex vivo survival assay for inhibition of lung cancer cells

[4] = system: human hepatic-cancer cells, Hep 3B; assay: Ex vivo survival assay (MTT) for anti-hepatic cancer effects, Hep 3B; settings: for IC50 ( µg/ml ) Hep3B: Hep 3B cells, 48 hours incubation, MTT, 570 nm; for IC50 value lower than that of crude extracts from A. camphorata: Hep 3B, relative to crude extracts (5.10 µg/ml)
Description: (§2) MTT assay is commonly used to determine cell proliferation, percent of viable cells, and cytotoxicity. 3-[4,5-dimethylthiazol-2-yl]2,5-diphenyltetrazolium bromide (MTT) is a yellow dye, which can be absorbed by the living cells and be reduced to purplish blue formazan crystals by succinate tetrazolium reductase in mitochondria. Formazan formation can therefore be used to assess and determine the survival rate of cells. The NCI anti-cancer drug screen model was employed to test the anti-cancer effect of the Antroquinonol B and Antroquinono C in the present invention. The Antroquinonos isolated from example 1 were added into the culture media of human hepatic-cancer cells, Hep 3B or Hep G2, for tumor cell survival assay. Hepatic-cancer cells Hep 3B (BCRC 60434) and Hep G2 (BCRC 60025), were obtained from the Bioresources Collection and Research Center (BCRC) of the Food Industry Research and Development Institute. The human hepatic-cancer cells, Hep 3B and Hep G2, were cultivated in media containing fetal calf serum for 24 hours. The proliferated cells were washed once with PBS, then treated with 1x trypsin-EDTA and centrifuged at 1200 rpm for 5 minutes. The supernatant was discarded and the cell pellet was resuspended in 10 ml of fresh culture medium by gently shaking. The cells were placed in a 96-well plate. Total ethanol extracts of Antrodia camphorata without purification (the control group), Antroquinonol B or Antroquinonol C (the experimental group) were added into each of the 96 wells at the following concentrations: 30, 10, 3, 1, 0.3, 0.1 and 0.03 µg/ml, respectively. The cells were incubated at 37°C in a 5% CO2 incubator for 48 hours. MTT was added in a concentration of 2.5 mg/ml into each well in dark and incubated for 4 hours, followed by the addition of 100 µl of lysis buffer to stop the reaction. The plates were read on an ELISA reader at wavelength of 570 nm to determine the survival rates. Table 3 Results of ex vivo survival assay for inhibition of hepatic cancer cells

[5] = system: human hepatic-cancer cells, Hep G2; assay: Ex vivo survival assay (MTT) for anti-hepatic cancer effects, Hep G2; settings: for IC50 value lower than that of crude extracts from A. camphorata: Hep G2, relative to crude extracts (18.63 µg/ml); for IC50 ( µg/ml ) HepG2: Hep G2 cells, 48 hours incubation, MTT, 570 nm
Description: as §2

[6] = system: human prostate cancer cells, LNCaP; assay: Ex vivo survival assay (MTT) for anti-prostate cancer effects, LNCaP; settings: for IC50 ( µg/ml ) LNCaP: LNCaP cells, 48 hours incubation, MTT, 570 nm; for IC50 value lower than the IC50 value of the control group: LNCaP, relative to control group (11.49 µg/ml)
Description: (§3) MTT assay is commonly used to determine cell proliferation, percent of viable cells, and cytotoxicity. 3-[4,5-dimethylthiazol-2-yl]2,5-diphenyltetrazolium bromide (MTT) is a yellow dye, which can be absorbed by the living cells and be reduced to purplish blue formazan crystals by succinate tetrazolium reductase in mitochondria. Formazan formation can therefore be used to assess and determine the survival rate of cells.
(§4) The NCI anti-cancer drug screen model was also employed to test the anti-cancer effect of the Antroquinonols in the present invention. Antroquinonol B and Antroquinonol C isolated from […] were added into the culture media of human prostate cancer cells, LNCaP or DU-145, and prostate cancer cell survival rates were analyzed with the abovementioned MTT assay. LNCaP is originated from epithelial cells of prostate gland, which depends on androgen in the early stage and thus is androgen-dependent cancer cell. […] This recurrent type prostate cancer has no effective treatment so far. Both LNCaP and DU-145 were ordered from NHRI with accession numbers of CCRC 60088 and CCRC 60348 respectively.
(§5) The human prostate-cancer cells, LNCaP and DU-145, were cultivated in media containing fetal calf serum for 24 hours. The proliferated cells were washed once with PBS, then treated with 1x trypsin-EDTA and centrifuged at 1200 rpm for 5 minutes. The supernatant was discarded and the cell pellet was resuspended in 10 ml of fresh culture medium by gently shaking. The cells were placed in a 96-well plate. Total ethanol extracts of Antrodia camphorata without purification (the control group), Antroquinonol B or Antroquinonol C (the experimental group) were added into each of the 96 wells at the following concentrations: 30, 10, 3, 1, 0.3, 0.1 and 0.03 µg/ml, respectively. The cells were incubated at 37°C in a 5% CO2 incubator for 48 hours. MTT was added in a concentration of 2.5 mg/ml into each well in dark and incubated for 4 hours, followed by the addition of 100 µl of lysis buffer to stop the reaction. The plates were read on an ELISA reader at wavelength of 570 nm to determine the survival rates. Table 4 Results of ex vivo survival assay for inhibition of prostate cancer cells

[7] = system: human prostate cancer cells, DU-145; assay: Ex vivo survival assay (MTT) for anti-prostate cancer effects, DU-145; settings: for IC50 value lower than the IC50 value of the control group: DU-145, relative to control group (41.39 µg/ml); for IC50 ( µg/ml ) DU-145: DU-145 cells, 48 hours incubation, MTT, 570 nm
Description: as §3, §4, §5

With `COC1=C(OC)[C@H](O)[C@H](C/C=C(\C)CC/C=C(/C)C/C=C/C(C)(C)O)[C@@H](C)C1=O` [Antroquinonol B] the “IC50 value lower than that of crude extracts from A. camphorata” value (“IC50 value lower than that” for short) [1] was 82.56%, the “IC50(µg/ml) MCF-7” value [1] was 1.94 µg/mL (≈ 4.77 µM) and the “IC50 value lower than that” value [2] was 66.21%. The “IC50(µg/ml) MDA-MB-231” value [2] was 8.72 µg/mL (≈ 21.4 µM), the “IC50 value lower than that” value [3] was 9.92% and the “IC50 ( µg/ml ) A549” value [3] was 11.9 µg/mL (≈ 29.3 µM). For the same compound, the “IC50 ( µg/ml ) Hep3B” value [4] was 1.21 µg/mL (≈ 2.98 µM), the “IC50 value lower than that” value [4] was 76.27% and the “IC50 value lower than that” value [5] was 82.18%. The “IC50 ( µg/ml ) HepG2” value [5] was 3.32 µg/mL (≈ 8.17 µM), the “IC50 ( µg/ml ) LNCaP” value [6] was 5.67 µg/mL (≈ 13.9 µM) and the “IC50 value lower than the IC50 value of the control group” value (shortened to “IC50 value lower than the IC50 value”) [6] was 50.65%. For the same compound, the “IC50 value lower than the IC50 value” value [7] was 75.55% and the “IC50 ( µg/ml ) DU-145” value [7] was 10.12 µg/mL (≈ 24.9 µM).
With Antroquinonol C the “IC50 value lower than that” value [1] was 89.49%, the “IC50(µg/ml) MCF-7” value [1] was 1.17 µg/mL and the “IC50 value lower than that” value [2] was 15.15%. The “IC50(µg/ml) MDA-MB-231” value [2] was 21.9 µg/mL, the “IC50 value lower than that” value [3] was 37.85% and the “IC50 ( µg/ml ) A549” value [3] was 8.21 µg/mL. The “IC50 ( µg/ml ) Hep3B” value [4] was 1.32 µg/mL, the “IC50 value lower than that” value [4] was 74.12% and the “IC50 value lower than that” value [5] was 72.52%. The “IC50 ( µg/ml ) HepG2” value [5] was 5.12 µg/mL, the “IC50 ( µg/ml ) LNCaP” value [6] was 8.72 µg/mL and the “IC50 value lower than the IC50 value” value [6] was 24.11%. For the same compound, the “IC50 value lower than the IC50 value” value [7] was 70.5% and the “IC50 ( µg/ml ) DU-145” value [7] was 12.21 µg/mL.
